Results: the supplement of paper PMC10883282
Counter-ions that a name gives are not always drawn. ± gives the standard deviation of the averaged measurements.

Test system: SK-LMS-1
Assay: relative viability vs DMSO control (72 h) (fraction); higher = more viable cells
How it was run: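 Relative viability was measured with ATPLite and expressed as percent growth, averaged across up to triplicate wells. Sarcoma cell lines had been seeded in 384-well plates to reach 80–90% confluence, dosed after 24 h, and incubated 72 h at 37 °C, 5% CO2. All data were rescaled on a scale where 1 is full and 0 is none.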

Row | SMILES | relative viability (0.00017 µM) | relative viability (0.00051 µM) | relative viability (0.00152 µM) | relative viability (0.00457 µM) | relative viability (0.01372 µM) | relative viability (0.04115 µM) | relative viability (0.1235 µM) | relative viability (0.3704 µM) | relative viability (1.111 µM) | relative viability (3.333 µM) | relative viability (10 µM)
1 | Cc1nc(NC(=O)N2CCC[C@H]2C(N)=O)sc1-c1ccnc(C(C)(C)C(F)(F)F)c1 [Alpelisib] | 1.02 ± 0.024 | 1.04 ± 0.048 | 1 ± 0.063 | 1.01 ± 0.022 | 0.967 ± 0.046 | 0.951 ± 0.048 | 0.889 ± 0.043 | 0.8312 ± 0.0082 | 0.749 ± 0.055 | 0.666 ± 0.025 | 0.54 ± 0.044
2 | Cn1cnc2c(F)c(Nc3ccc(Br)cc3F)c(C(=O)NOCCO)cc21 [Binimetinib] | 1.11 ± 0.03 | 1.16 ± 0.045 | 1.13 ± 0.034 | 1.07 ± 0.073 | 1 ± 0.011 | 0.879 ± 0.01 | 0.725 ± 0.039 | 0.646 ± 0.038 | 0.61 ± 0.016 | 0.484 ± 0.011 | 0.375 ± 0.028
3 | CCc1cc2c(cc1N1CCC(N3CCOCC3)CC1)C(C)(C)c1[nH]c3cc(C#N)ccc3c1C2=O [Alectinib] | 1.06 ± 0.056 | 1.1 ± 0.043 | 1.08 ± 0.041 | 1.1 ± 0.027 | 1.12 ± 0.018 | 1.08 ± 0.06 | 1.119 ± 0.0081 | 1.12 ± 0.0046 | 1.1 ± 0.019 | 1.11 ± 0.021 | 1.08 ± 0.016
4 | Cc1cc(C)c(/C=C2\C(=O)Nc3ccccc32)[nH]1 [Semaxanib] | 0.927 ± 0.045 | 0.907 ± 0.044 | 0.897 ± 0.025 | 0.878 ± 0.033 | 0.897 ± 0.053 | 0.874 ± 0.039 | 0.872 ± 0.02 | 0.894 ± 0.018 | 0.905 ± 0.027 | 0.871 ± 0.033 | 0.811 ± 0.013
5 | CC1(C)CNc2cc(NC(=O)c3cccnc3NCc3ccncc3)ccc21 [Motesanib] | 1.04 ± 0.042 | 1.02 ± 0.013 | 1.024 ± 0.0066 | 1.02 ± 0.016 | 1.06 ± 0.025 | 1.03 ± 0.033 | 1.02 ± 0.04 | 1.04 ± 0.027 | 0.99 ± 0.037 | 0.986 ± 0.017 | 0.925 ± 0.02
6 | CNC(=O)c1ccc(-c2cnc3ncc(Cc4ccc5ncccc5c4)n3n2)cc1F [Capmatinib] | 1.02 ± 0.019 | 1 ± 0.07 | 0.987 ± 0.015 | 0.882 ± 0.031 | 0.617 ± 0.047 | 0.536 ± 0.0061 | 0.532 ± 0.0098 | 0.53 ± 0.013 | 0.512 ± 0.012 | 0.496 ± 0.017 | 0.5154 ± 0.005
7 | CC(C)N1CCN(Cc2cnc(-c3cc(-c4cccc5[nH]ccc45)cc4[nH]ncc34)o2)CC1 [Nemiralisib] | 1.05 ± 0.047 | 1.02 ± 0.033 | 1.06 ± 0.038 | 1.04 ± 0.011 | 1.04 ± 0.047 | 1.05 ± 0.04 | 1.042 ± 0.0068 | 0.994 ± 0.033 | 0.928 ± 0.012 | 0.821 ± 0.029 | 0.658 ± 0.041
8 | CO[C@H]1C[C@@H]2CC[C@@H](C)[C@@](O)(O2)C(=O)C(=O)N2CCCC[C@H]2C(=O)O[C@H]([C@H](C)C[C@@H]2CC[C@@H](OP(C)(C)=O)[C@H](OC)C2)CC(=O)[C@H](C)/C=C(\C)[C@@H](O)[C@@H](OC)C(=O)[C@H](C)C[C@H](C)/C=C/C=C/C=C/1C [Ridaforolimus] | 1.01 ± 0.067 | 0.903 ± 0.025 | 0.753 ± 0.016 | 0.67 ± 0.018 | 0.632 ± 0.029 | 0.594 ± 0.031 | 0.559 ± 0.022 | 0.563 ± 0.031 | 0.554 ± 0.021 | 0.5602 ± 0.0032 | 0.5145 ± 0.0018
9 | Nc1cc(C(F)(F)F)c(-c2cc(N3CCOCC3)nc(N3CCOCC3)n2)cn1 [Buparlisib] | 1.02 ± 0.031 | 0.9986 ± 0.0078 | 1.01 ± 0.035 | 1.02 ± 0.013 | 1.01 ± 0.038 | 0.9304 ± 0.0067 | 0.825 ± 0.018 | 0.686 ± 0.015 | 0.3771 ± 0.0013 | 0.148 ± 0.0057 | 0.102 ± 0.0085
10 | Cc1ccc(F)c(NC(=O)Nc2ccc(-c3cccc4[nH]nc(N)c34)cc2)c1 [Linifanib] | 0.97 ± 0.011 | 1 ± 0.02 | 1.02 ± 0.022 | 1.01 ± 0.038 | 1.03 ± 0.037 | 1.01 ± 0.041 | 1.02 ± 0.05 | 1.04 ± 0.059 | 1.099 ± 0.0016 | 1.05 ± 0.058 | 1.06 ± 0.075
11 | N#CC[C@H](C1CCCC1)n1cc(-c2ncnc3[nH]ccc23)cn1 [Ruxolitinib] | 1.03 ± 0.012 | 1 ± 0.037 | 0.995 ± 0.036 | 1.03 ± 0.034 | 1.036 ± 0.0052 | 1.035 ± 0.0072 | 1.02 ± 0.021 | 1.03 ± 0.029 | 1.03 ± 0.039 | 0.986 ± 0.033 | 0.828 ± 0.02
12 | C=CC(=O)Nc1cccc(Oc2nc(Nc3ccc(N4CCN(C)CC4)cc3)nc3ccsc23)c1 [Olmutinib] | 1.06 ± 0.047 | 1.08 ± 0.013 | 1.07 ± 0.044 | 1.076 ± 0.006 | 1.09 ± 0.029 | 1.06 ± 0.015 | 1.08 ± 0.013 | 1.05 ± 0.04 | 0.976 ± 0.033 | 0.843 ± 0.016 | 0.113 ± 0.03
13 | CCCS(=O)(=O)Nc1ccc(F)c(C(=O)c2c[nH]c3ncc(-c4ccc(Cl)cc4)cc23)c1F [Vemurafenib] | 0.994 ± 0.053 | 0.988 ± 0.079 | 1.01 ± 0.081 | 1.06 ± 0.053 | 1.03 ± 0.028 | 0.979 ± 0.06 | 1.02 ± 0.013 | 0.959 ± 0.01 | 0.855 ± 0.033 | 0.667 ± 0.018 | 0.697 ± 0.1
14 | Cc1ccc(NC(=O)c2ccc(CN3CCN(C)CC3)cc2)cc1Nc1nc(-c2cccnc2)cs1 [Masitinib] | 1.03 ± 0.013 | 1.05 ± 0.031 | 1.03 ± 0.022 | 1.02 ± 0.029 | 1.02 ± 0.029 | 1.04 ± 0.03 | 1.01 ± 0.018 | 1.008 ± 0.0068 | 0.953 ± 0.051 | 0.605 ± 0.0079 | 0.103 ± 0.0046
15 | Cc1cnc(Nc2ccc(OCCN3CCCC3)cc2)nc1Nc1cccc(S(=O)(=O)NC(C)(C)C)c1 [Fedratinib] | 1.01 ± 0.035 | 1 ± 0.068 | 1.04 ± 0.041 | 1.08 ± 0.062 | 1.04 ± 0.012 | 1.01 ± 0.042 | 0.99 ± 0.018 | 0.904 ± 0.034 | 0.7315 ± 0.0026 | 0.407 ± 0.011 | 0.0111 ± 0.0012
16 | C[C@@H](c1ccc2nccn2c1)n1nnc2ncc(-c3cnn(C)c3)nc21 [Volitinib] | 1.03 ± 0.013 | 0.979 ± 0.016 | 0.975 ± 0.027 | 0.958 ± 0.027 | 0.763 ± 0.019 | 0.636 ± 0.017 | 0.548 ± 0.016 | 0.554 ± 0.024 | 0.546 ± 0.019 | 0.537 ± 0.016 | 0.538 ± 0.0092
17 | COc1cccc2c1C(=O)c1c(O)c3c(c(O)c1C2=O)C[C@@](O)(C(=O)CO)C[C@@H]3O[C@H]1C[C@H](N)[C@H](O)[C@H](C)O1 [Doxorubicin Hydrochloride] | 0.998 ± 0.032 | 1.02 ± 0.038 | 1.02 ± 0.044 | 1.03 ± 0.024 | 0.967 ± 0.047 | 0.781 ± 0.011 | 0.649 ± 0.046 | 0.313 ± 0.025 | 0.209 ± 0.069 | 0.296 ± 0.0043 | 0.293 ± 0.0053
18 | CCN1CCN(Cc2ccc(Nc3ncc(F)c(-c4cc(F)c5nc(C)n(C(C)C)c5c4)n3)nc2)CC1 [Abemaciclib] | 1.03 ± 0.012 | 1.05 ± 0.019 | 1.05 ± 0.057 | 1.02 ± 0.033 | 1.04 ± 0.024 | 1.01 ± 0.021 | 0.945 ± 0.037 | 0.9498 ± 0.0093 | 0.926 ± 0.043 | 0.88 ± 0.042 | 0.873 ± 0.02
19 | C=CC(=O)N1CCC([C@@H]2CCNc3c(C(N)=O)c(-c4ccc(Oc5ccccc5)cc4)nn32)CC1 [Zanubrutinib] | 0.996 ± 0.023 | 1.04 ± 0.055 | 1.03 ± 0.05 | 1.051 ± 0.0069 | 1.01 ± 0.06 | 1.05 ± 0.015 | 1.03 ± 0.025 | 1.08 ± 0.021 | 1.06 ± 0.012 | 1.07 ± 0.012 | 1.05 ± 0.04
20 | COc1cc2/c(=N/c3ccc(Br)cc3F)nc[nH]c2cc1OCC1CCN(C)CC1 [Vandetanib] | 0.994 ± 0.015 | 1.01 ± 0.029 | 1.02 ± 0.049 | 1.08 ± 0.015 | 1.02 ± 0.09 | 1.05 ± 0.039 | 1.01 ± 0.015 | 1.03 ± 0.074 | 0.939 ± 0.011 | 0.484 ± 0.0052 | 0.103 ± 0.014
21 | C[C@@H]1COCCN1c1cc(-c2ccnn2C)c2ccnc(-c3ccn[nH]3)c2n1 | 0.9973 ± 0.0066 | 0.992 ± 0.064 | 0.989 ± 0.033 | 1 ± 0.051 | 1 ± 0.024 | 0.928 ± 0.056 | 0.785 ± 0.035 | 0.571 ± 0.016 | 0.371 ± 0.025 | 0.271 ± 0.0038 | 0.234 ± 0.0024
22 | C[C@]1(O)C[C@@H](c2nc(-c3ccc4ccc(-c5ccccc5)nc4c3)c3c(N)nccn32)C1 [Linsitinib] | 1.04 ± 0.02 | 1.07 ± 0.022 | 1.05 ± 0.067 | 1.07 ± 0.025 | 1.04 ± 0.022 | 1.01 ± 0.025 | 1.01 ± 0.034 | 1.03 ± 0.019 | 1.01 ± 0.026 | 0.938 ± 0.011 | 0.71 ± 0.027
23 | COc1c(OCCCN2CCOCC2)ccc2c1N=C(NC(=O)c1cnc(N)nc1)N1CCN=C21 [Copanlisib] | 1.05 ± 0.059 | 0.995 ± 0.035 | 0.964 ± 0.032 | 0.814 ± 0.035 | 0.744 ± 0.042 | 0.629 ± 0.014 | 0.539 ± 0.018 | 0.454 ± 0.017 | 0.365 ± 0.02 | 0.296 ± 0.014 | 0.302 ± 0.011
24 | CN1CCN(c2ccc3nc(-c4c(N)c5c(F)cccc5[nH]c4=O)[nH]c3c2)CC1 [Dovitinib] | 1.08 ± 0.053 | 1.09 ± 0.049 | 1.1 ± 0.037 | 1.14 ± 0.043 | 1.09 ± 0.063 | 1.12 ± 0.022 | 1.11 ± 0.015 | 1.07 ± 0.035 | 0.907 ± 0.017 | 0.654 ± 0.021 | 0.407 ± 0.0099
25 | COCc1c(-c2cc3cc(C)cc(OC)c3s2)c2c(N)ncnn2c1CN1CCNC(=O)C1 [Rogaratinib] | 1.01 ± 0.034 | 0.992 ± 0.026 | 1.02 ± 0.022 | 1.01 ± 0.044 | 0.995 ± 0.022 | 0.992 ± 0.035 | 1 ± 0.01 | 0.975 ± 0.017 | 0.96 ± 0.036 | 0.76 ± 0.019 | 0.589 ± 0.017
26 | CN1CCC(COc2cnc(-c3cccc(Cn4nc(-c5cccc(C#N)c5)ccc4=O)c3)nc2)CC1 [Tepotinib] | 1.06 ± 0.027 | 1.05 ± 0.022 | 1.01 ± 0.037 | 1.05 ± 0.039 | 1 ± 0.047 | 0.833 ± 0.017 | 0.597 ± 0.019 | 0.526 ± 0.0067 | 0.489 ± 0.0072 | 0.461 ± 0.02 | 0.361 ± 0.028
